The results in this text go back to ChEMBL document CHEMBL1201862, “PubChem BioAssay data set” (2004).

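48-hour exposure; five concentrations; linearly interpolated endpoints. GI50: concentration for 50% inhibition of growth.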 Active and inactive are the calls of the source. No stated cut-off is given here; in the data, active = GI50 up to about 1.1 µM and inactive = higher.

Among the test systems are RXF 631; DLD-1; HOP-18; M19-MEL; LXFL 529; XF498; DMS-114; KM-20L2; BT-549.
Common to all, as to test: NCI anticancer screen, dose series, 48 h

Regarding `CC(C)C1=CC(=O)C(C)(C2=NC(C)(C)CO2)c2ccccc21` (centres undefined), the GI50 with RXF 631 is 95.7 µM (inactive); in the test on DLD-1, > 100 µM (inactive); in the test with HOP-18 it was 34.6 µM (inactive); with M19-MEL it was > 100 µM (inactive); in the test on LXFL 529 it was 94.4 µM (inactive); with XF498, > 100 µM (inactive). Moreover, the figures for the GI50 in the test on DMS-114 and in the test with KM-20L2 were 51.4 µM (inactive) and > 100 µM (inactive), respectively.

Regarding `C#C[C@@H](CCCC)OC(=O)N[C@H](C)c1ccccc1`, the GI50 was 45.6 µM (inactive) with RXF 631; 59.4 µM (inactive) in the test on DLD-1; > 100 µM (inactive) with HOP-18; 38.5 µM (inactive) in the test on M19-MEL; 43.1 µM (inactive) in the test on LXFL 529; 66.8 µM (inactive) in the test with XF498. Besides, the GI50 with DMS-114 is 25.1 µM (inactive); with KM-20L2, 51.8 µM (inactive).

Regarding `CCOC(=O)/N=c1/nc(N(C)C)ss1`, the GI50 in the test with RXF 631, in the test on DLD-1, in the test with HOP-18, with LXFL 529, in the test on XF498 and with DMS-114 was > 100 µM (inactive) in each case. Further, the GI50 with KM-20L2 is > 100 µM (inactive).

Regarding `CC(=O)NNc1nc(C)c(C(=O)/C=C/c2ccc(/C=C/C(=O)c3sc(NNC(C)=O)nc3C)cc2)s1`, the GI50 in the test with RXF 631, in the test on DLD-1, in the test with M19-MEL, in the test on LXFL 529, with XF498 and with DMS-114 was > 100 µM (inactive) in each case.

For `C/C(=N\NC(=S)N1CC2CCC(CC2)C1)c1nccs1`, the GI50 is 0.518 µM (active) in the test with RXF 631; 0.0423 µM (active) in the test on DLD-1; 1.07 µM (active) in the test on BT-549; 0.327 µM (active) with HOP-18; 0.288 µM (active) in the test on M19-MEL; 0.0201 µM (active) in the test with LXFL 529. Also, the results for the GI50 with XF498, in the test on DMS-114 and in the test on KM-20L2 were 2.3 µM (inactive), < 0.0148 µM (active) and < 0.01 µM (active), respectively.

Turning to `CCCCCCCCCCCCCC(=O)OCC(C[As](=O)(O)O)OC(=O)CCCCCCCCCCCCC` (centres undefined), the GI50 was > 100 µM (inactive) with RXF 631; > 100 µM (inactive) with DLD-1; > 100 µM (inactive) in the test on HOP-18; > 100 µM (inactive) in the test on LXFL 529; > 100 µM (inactive) in the test with XF498; 74 µM (inactive) in the test with DMS-114. The GI50 in the test on KM-20L2 is > 100 µM (inactive).

`COc1c(C)n(CCO)ccc1=O`: the GI50 with RXF 631, with DLD-1, in the test with M19-MEL, with LXFL 529, in the test on XF498 and in the test with DMS-114 was > 100 µM (inactive) each time. In addition, the GI50 in the test with KM-20L2 was > 100 µM (inactive).

For the compound `Cc1ccc(NC(=O)CCCC(=O)CC(=O)c2ccc(Br)cc2)cc1`, the GI50 with RXF 631, with DLD-1, in the test with HOP-18, in the test with M19-MEL, with LXFL 529 and in the test with DMS-114 was > 100 µM (inactive) each time. In addition, in the test on KM-20L2, the GI50 was > 100 µM (inactive).

For the compound `O=C1/C(=C/c2ccc(Cl)cc2)COc2ccc(Br)cc21`, the GI50 was > 100 µM (inactive) with RXF 631; > 100 µM (inactive) with DLD-1; 11.6 µM (inactive) in the test on HOP-18; > 100 µM (inactive) with M19-MEL; > 100 µM (inactive) in the test with LXFL 529; 69 µM (inactive) in the test on XF498. The GI50 with DMS-114 and in the test with KM-20L2 was > 100 µM (inactive) throughout.

Take `CC(=O)c1ccccc1NC(=O)C(=O)C(C(=O)c1ccccc1-c1ccccc1)C1OC(=O)c2ccccc21` (centres undefined): the GI50 with RXF 631 is 50.6 µM (inactive); in the test with DLD-1 it was 23.1 µM (inactive); with HOP-18, 15.2 µM (inactive); with M19-MEL, 17.2 µM (inactive); with LXFL 529 it was 15.5 µM (inactive); in the test on XF498, 11.3 µM (inactive). The GI50 in the test with KM-20L2 is 26.6 µM (inactive).

Turning to `COC(=O)C1CCc2nnc(-c3cccnc3)n21` (centres undefined), the GI50 in the test with RXF 631, in the test on DLD-1, in the test with HOP-18, in the test on M19-MEL, in the test on LXFL 529 and in the test on DMS-114 was > 100 µM (inactive) in each case. Also, the GI50 with KM-20L2 is > 100 µM (inactive).

As to `CCCCCCCCCCCCCC(=O)NCO`, the GI50 in the test on RXF 631, in the test on DLD-1, in the test with HOP-18, in the test with M19-MEL, in the test on LXFL 529 and in the test on XF498 was > 100 µM (inactive) throughout. In addition, the GI50 with DMS-114 and in the test on KM-20L2 was > 100 µM (inactive) each time.
